Results from US10202658B2, “Methods for determining hypersusceptibility of HIV-1 to non-nucleoside reverse transcriptase inhibitors” (Monogram Biosciences, Inc., priority 2005, dated 2019).

Tested on: HIV-1 clinical isolates grouped by RT mutations
Test: Pairwise comparison of NNRTI fold change between groups of clinical isolates (Student's T-test, Bonferroni's Multiple Comparison Test)
Type: cell-based
Procedure: This example provides methods and compositions for identifying mutations that correlate with hypersusceptibility to a NNRTI. Resistance test vectors were constructed and used as described in Example 1. Resistance test vectors derived from patient samples or clones derived from the resistance test vector pools were tested in a resistance assay to determine accurately and quantitatively the relative EFV, DLV, or NVP resistance or susceptibility compared to the median observed resistance or susceptibility.
To identify mutations associated with NNRTI hypersusceptibility, the following analysis was performed. […] The TAMs referenced in. Table 1 include M41L, D67N, K70R, L210W, T215FY, and K219X, while the NAMs referenced include K65R, T69X, L74IV, V75X, and M184IV. Isolates without NRTI, NNRTI or PI mutations served as a wild type (WT) reference group. Further comparison groups comprised isolates with three TAMS including T215Y (+/−H208Y, +/−V118I) or three TAMS including K70R. Scatter plots and statistical tests (See FIGS. 1-6) were generated using Prism 4.0 (GraphPad, San Diego, Calif.)
In addition, a pairwise comparison between two sets of data was conducted using Bonferroni's Multiple Comparison Test using the Prism 4.0 software. The results of the comparison are presented in Tables 2, 3, and 4, appended to the end of this document. Samples with K65R, K65R+M184V, or 2 TAMs in combination with T215Y had over 40% with EFV FC<0.4.

CC(C)Nc1cccnc1N1CCN(C(=O)c2cc3cc(NS(C)(=O)=O)ccc3[nH]2)CC1 [DLV, delavirdine]
Mean Diff. of fold change (1 NAM vs 2 NAMs): 0.2985 | Mean Diff. of fold change (1 NAM vs 3 NAMs): 0.293 | Mean Diff. of fold change (1 NAM vs K65R): 0.3868 | Mean Diff. of fold change (1 NAM vs K65R + M184V): 0.5114 | Mean Diff. of fold change (1 NAM vs K70R_3_TAMs): −0.5755 | Mean Diff. of fold change (1 NAM vs M184V): −0.007762 | Mean Diff. of fold change (1 NAM vs T69): −0.1256 | Mean Diff. of fold change (1 NAM vs T215Y_3_TAMs): 0.6784 | Mean Diff. of fold change (1 NAM vs T215Y_3_TAMs_118): 0.6483 | Mean Diff. of fold change (1 NAM vs T215Y_3_TAMs_208): 0.7831 | Mean Diff. of fold change (1 NAM vs T215Y_3_TAMs_no118): 0.6983 | Mean Diff. of fold change (1 NAM vs T215Y_3_TAMs_no208): 0.6612 | Mean Diff. of fold change (2 NAMs vs 3 NAMs): −0.005498 | Mean Diff. of fold change (2 NAMs vs K65R): 0.08826 | Mean Diff. of fold change (2 NAMs vs K65R + M184V): 0.2128 | Mean Diff. of fold change (2 NAMs vs K70R_3_TAMs): −0.874 | Mean Diff. of fold change (2 NAMs vs M184V): −0.3063 | Mean Diff. of fold change (2 NAMs vs T69): −0.4242 | Mean Diff. of fold change (2 NAMs vs T215Y_3_TAMs): 0.3799 | Mean Diff. of fold change (2 NAMs vs T215Y_3_TAMs_118): 0.3498 | Mean Diff. of fold change (2 NAMs vs T215Y_3_TAMs_208): 0.4845 | Mean Diff. of fold change (2 NAMs vs T215Y_3_TAMs_no118): 0.3997 | Mean Diff. of fold change (2 NAMs vs T215Y_3_TAMs_no208): 0.3627 | Mean Diff. of fold change (3 NAMs vs K65R): 0.09376 | Mean Diff. of fold change (3 NAMs vs K65R + M184V): 0.2183 | Mean Diff. of fold change (3 NAMs vs K70R_3_TAMs): −0.8685 | Mean Diff. of fold change (3 NAMs vs M184V): −0.3008 | Mean Diff. of fold change (3 NAMs vs T69): −0.4187 | Mean Diff. of fold change (3 NAMs vs T215Y_3_TAMs): 0.3854 | Mean Diff. of fold change (3 NAMs vs T215Y_3_TAMs_118): 0.3553 | Mean Diff. of fold change (3 NAMs vs T215Y_3_TAMs_208): 0.49 | Mean Diff. of fold change (3 NAMs vs T215Y_3_TAMs_no118): 0.4052 | Mean Diff. of fold change (3 NAMs vs T215Y_3_TAMs_no208): 0.3682 | Mean Diff. of fold change (K65R + M184V vs K70R_3_TAMs): −1.087 | Mean Diff. of fold change (K65R + M184V vs T215Y_3_TAMs): 0.167 | Mean Diff. of fold change (K65R + M184V vs T215Y_3_TAMs_118): 0.137 | Mean Diff. of fold change (K65R + M184V vs T215Y_3_TAMs_208): 0.2717 | Mean Diff. of fold change (K65R + M184V vs T215Y_3_TAMs_no118): 0.1869 | Mean Diff. of fold change (K65R + M184V vs T215Y_3_TAMs_no208): 0.1499 | Mean Diff. of fold change (K65R vs K65R + M184V): 0.1246 | Mean Diff. of fold change (K65R vs K70R_3_TAMs): −0.9623 | Mean Diff. of fold change (K65R vs M184V): −0.3946 | Mean Diff. of fold change (K65R vs T69): −0.5124 | Mean Diff. of fold change (K65R vs T215Y_3_TAMs): 0.2916 | Mean Diff. of fold change (K65R vs T215Y_3_TAMs_118): 0.2615 | Mean Diff. of fold change (K65R vs T215Y_3_TAMs_208): 0.3963 | Mean Diff. of fold change (K65R vs T215Y_3_TAMs_no118): 0.3115 | Mean Diff. of fold change (K65R vs T215Y_3_TAMs_no208): 0.2744 | Mean Diff. of fold change (K70R_3_TAMs vs T215Y_3_TAMs_118): 1.224 | Mean Diff. of fold change (K70R_3_TAMs vs T215Y_3_TAMs_no118): 1.274 | Mean Diff. of fold change (M184V vs K65R + M184V): 0.5191 | Mean Diff. of fold change (M184V vs K70R_3_TAMs): −0.5677 | Mean Diff. of fold change (M184V vs T69): −0.1179 | Mean Diff. of fold change (M184V vs T215Y_3_TAMs): 0.6862 | Mean Diff. of fold change (M184V vs T215Y_3_TAMs_118): 0.6561 | Mean Diff. of fold change (M184V vs T215Y_3_TAMs_208): 0.7908 | Mean Diff. of fold change (M184V vs T215Y_3_TAMs_no118): 0.706 | Mean Diff. of fold change (M184V vs T215Y_3_TAMs_no208): 0.669 | Mean Diff. of fold change (T69 vs K65R + M184V): 0.637 | Mean Diff. of fold change (T69 vs K70R_3_TAMs): −0.4499 | Mean Diff. of fold change (T69 vs T215Y_3_TAMs): 0.8041 | Mean Diff. of fold change (T69 vs T215Y_3_TAMs_118): 0.774 | Mean Diff. of fold change (T69 vs T215Y_3_TAMs_208): 0.9087 | Mean Diff. of fold change (T69 vs T215Y_3_TAMs_no118): 0.8239 | Mean Diff. of fold change (T69 vs T215Y_3_TAMs_no208): 0.7869 | Mean Diff. of fold change (T215Y_3_TAMs vs K70R_3_TAMs): −1.254 | Mean Diff. of fold change (T215Y_3_TAMs vs T215Y_3_TAMs_118): −0.03008 | Mean Diff. of fold change (T215Y_3_TAMs vs T215Y_3_TAMs_208): 0.1046 | Mean Diff. of fold change (T215Y_3_TAMs vs T215Y_3_TAMs_no118): 0.01984 | Mean Diff. of fold change (T215Y_3_TAMs vs T215Y_3_TAMs_no208): −0.01718 | Mean Diff. of fold change (T215Y_3_TAMs_208 vs K70R_3_TAMs): −1.359 | Mean Diff. of fold change (T215Y_3_TAMs_208 vs T215Y_3_TAMs_118): −0.1347 | Mean Diff. of fold change (T215Y_3_TAMs_208 vs T215Y_3_TAMs_no118): −0.0848 | Mean Diff. of fold change (T215Y_3_TAMs_208 vs T215Y_3_TAMs_no208): −0.1218 | Mean Diff. of fold change (T215Y_3_TAMs_no118 vs T215Y_3_TAMs_118): −0.04992 | Mean Diff. of fold change (T215Y_3_TAMs_no208 vs K70R_3_TAMs): −1.237 | Mean Diff. of fold change (T215Y_3_TAMs_no208 vs T215Y_3_TAMs_118): −0.0129 | Mean Diff. of fold change (T215Y_3_TAMs_no208 vs T215Y_3_TAMs_no118): 0.03702 | mean fold change (FC) compared to the WT population (all groups containing NAMs or the combination of TAMs shown in Table 1, p<0.0001, Student's T-test): significantly lower | Mean Diff. of fold change (wt vs 1 NAM): 0.3819 | Mean Diff. of fold change (wt vs 2 NAMs): 0.6804 | Mean Diff. of fold change (wt vs 3 NAMs): 0.6749 | Mean Diff. of fold change (wt vs K65R): 0.7687 | Mean Diff. of fold change (wt vs K65R + M184V): 0.8932 | Mean Diff. of fold change (wt vs K70R_3_TAMs): −0.1936 | Mean Diff. of fold change (wt vs M184V): 0.3741 | Mean Diff. of fold change (wt vs T69): 0.2562 | Mean Diff. of fold change (wt vs T215Y_3_TAMs): 1.06 | Mean Diff. of fold change (wt vs T215Y_3_TAMs_118): 1.03 | Mean Diff. of fold change (wt vs T215Y_3_TAMs_208): 1.165 | Mean Diff. of fold change (wt vs T215Y_3_TAMs_no118): 1.08 | Mean Diff. of fold change (wt vs T215Y_3_TAMs_no208): 1.043
